“Also recorded” adds a separate entry of the source.

From patent publication US9375448B2, “Method for isolating a chemotherapeutic agent resistant cancer cell with stem cell properties” (THE ROGOSIN INSTITUTE, INC., priority 2010, dated 2016) come the findings set out here.

For assay [1], the system named is RENCA cells. As to the kind of experiment: Histological examination of agarose coated agarose beads containing RENCA cells one week after drug exposure. It counts as cell-based. Also on record: key to Effect: −: no change; +: complete loss of cell viability; +/−: an intermediate effect. The following applies: for Effect: histology one week following exposure; for Destruction of cells within the encapsulated tumor colonies: beads treated with the drug. The procedure:
Agarose coated, agarose beads containing RENCA cells were prepared in accordance with Smith, et al., Canc Res., 71(3): 716-724 (2011); and Smith et al., Canc. Res. 71(3): 725-735 (2011), the disclosures of which are incorporated by reference. The resulting beads were cultured in medium for 12 weeks.
Samples of beads were then exposed to a single, known anti-cancer drug, at one of three varying concentrations. The exposure involved incubation of the beads in the presence of the drug for a period of time based upon the known, half life of the drug.
Following incubation, the beads were washed, twice, and transferred to naïve culture media. Controls were also prepared, which included untreated beads, as well as beads exposed to whatever vehicle was used to solubilize the drug.
Histological examination of the beads was undertaken one week following exposure to the drug. […]

Assay [2] relates to RENCA cells. As to the kind of experiment: 18 week culture of drug treated RENCA beads, sectioned and stained to count cell nuclei, normalized to DMSO treated beads. It counts as cell-based. The following applies: for beads that developed 1 or 2 large colonies: week 18. How it is done: The Paclitaxel and Docetaxel treated beads were cultured, under standard conditions, as were control beads which had been exposed to DMSO, which was the vehicle for delivery of the two drugs. The culture period was 18 weeks.
Approximately 10% of the beads developed 1 or 2 large colonies, at week 18.
In order to quantify the cell loss, representative beads from the DMSO control, Paclitaxel and Docetaxel groups were sectioned and stained, using standard methods, in order to permit counting of cell nuclei. Results were normalized to the DMSO treated beads.
In the case of treatment with Paclitaxel, there was an initial loss over weeks 1-3, of about 25% of cells per colony. The majority of colonies did contain viable cells. […] In the case of docetaxel treated beads, these lost viable cells very rapidly, such that only 1-2 viable cells were present in the colonies 6 weeks after treatment.

Take `N.N.O=C([O-])C1(C(=O)[O-])CCC1.[Pt+2]` [Carboplatin]: the Effect entry with RENCA cells [1] (Treatment time 5 days, dose 25 μg/ml) is given as “+/−”; with RENCA cells [1] (Treatment time 5 days, dose 250 μg/ml) it was “+”; with RENCA cells [1] (Treatment time 5 days, dose 2500 μg/ml), “+”.
As to `N.N.[Cl][Pt][Cl]` [Cisplatin], the Effect entry in the assay on RENCA cells [1] (Treatment time 1 hr, dose 60 ng/ml) was “−”; with RENCA cells [1] (Treatment time 1 hr, dose 600 ng/ml), “−”; in the assay with RENCA cells [1] (Treatment time 1 hr, dose 6000 ng/ml), “−”.
In the case of `CC(=O)O[C@@]12CO[C@@H]1C[C@H](O)[C@@]1(C)C(=O)[C@H](O)C3=C(C)[C@@H](OC(=O)[C@H](O)[C@@H](NC(=O)OC(C)(C)C)c4ccccc4)C[C@@](O)([C@@H](OC(=O)c4ccccc4)[C@H]21)C3(C)C` [Docetaxel], the Effect result is “+/−” with RENCA cells [1] (Treatment time 1 day, dose 0.5 μg/ml); “+/−” in the assay with RENCA cells [1] (Treatment time 1 day, dose 5 μg/ml); “+/−” in the assay on RENCA cells [1] (Treatment time 1 day, dose 50 μg/ml). The “Destruction of cells within the encapsulated tumor colonies” value in the assay with RENCA cells [1] is “did not destroy all of the cells”. In addition, the “viable cells per colony” value in the assay on RENCA cells [2] (5 μg/ml, 6 weeks post-treatment) is given as 1-2 cells per colony. The “beads that developed 1 or 2 large colonies” value in the assay with RENCA cells [2] (5 μg/ml) is recorded as “Approximately 10%”; with RENCA cells [2] (5 μg/ml, listed as docetaxel), “about 10%”.
Consider `COc1cccc2c1C(=O)c1c(O)c3c(c(O)c1C2=O)C[C@@](O)(C(=O)CO)C[C@@H]3O[C@H]1C[C@H](N)[C@H](O)[C@H](C)O1` [Doxorubicin], for which the Effect entry in the assay with RENCA cells [1] (Treatment time 2 days, dose 5 μg/ml) is recorded as “+”; in the assay on RENCA cells [1] (Treatment time 2 days, dose 50 μg/ml) it was “+”; in the assay on RENCA cells [1] (Treatment time 2 days, dose 100 μg/ml), “+”.
Take `CN(Cc1cnc2nc(N)nc(N)c2n1)c1ccc(C(=O)N[C@@H](CCC(=O)O)C(=O)O)cc1` [Methotrexate]: the Effect result with RENCA cells [1] (Treatment time 1 day, dose 0.45 μg/ml) is “−”; in the assay with RENCA cells [1] (Treatment time 1 day, dose 4.5 μg/ml) it was “−”; with RENCA cells [1] (Treatment time 1 day, dose 45 μg/ml), “−”.
For `CC(=O)O[C@H]1C(=O)[C@@]2(C)[C@H]([C@H](OC(=O)c3ccccc3)[C@]3(O)C[C@H](OC(=O)[C@H](O)[C@@H](NC(=O)c4ccccc4)c4ccccc4)C(C)=C1C3(C)C)[C@]1(OC(C)=O)CO[C@@H]1C[C@@H]2O` [Paclitaxel], the Effect result is “−” in the assay on RENCA cells [1] (Treatment time 1 day, dose 0.35 μg/ml); “+/−” in the assay with RENCA cells [1] (Treatment time 1 day, dose 3.5 μg/ml); “+/−” in the assay with RENCA cells [1] (Treatment time 1 day, dose 35 μg/ml). For the same compound, in the assay with RENCA cells [1], the “Destruction of cells within the encapsulated tumor colonies” value is listed as “did not destroy all of the cells”. For the same compound, the “cell number at week 18” value in the assay with RENCA cells [2] (3.5 μg/ml, 18 weeks culture) is listed as “return to the pre-treatment number of cells; also recorded: equivalent to the control DMSO beads”. Further, the “cell number in beads over time after treatment” value in the assay with RENCA cells [2] (3.5 μg/ml, first 6 weeks post-treatment) is given as “loss of cells for 6 weeks”. For the same compound, the “initial loss of cells per colony” value in the assay on RENCA cells [2] (weeks 1-3 after treatment, normalized to DMSO treated beads) is “about 25%”.
Turning to `CCC1=C[C@@H]2CN(C1)Cc1c([nH]c3ccccc13)[C@@](C(=O)OC)(c1cc3c(cc1OC)N(C)[C@H]1[C@@](O)(C(=O)OC)[C@H](OC(C)=O)[C@]4(CC)C=CCN5CC[C@]31[C@@H]54)C2` [Vinorelbine], the Effect result with RENCA cells [1] (Treatment time 2 days, dose 0.1 μg/ml) is on record as “−”; in the assay on RENCA cells [1] (Treatment time 2 days, dose 1 μg/ml), “+/−”; in the assay on RENCA cells [1] (Treatment time 2 days, dose 10 μg/ml), “+/−”.
